The text below walks through data of patent publication US10322995B2, “Substituted cyano cycloalkyl penta-2,4-dienes, cyano cycloalkyl pent-2-en-4-ynes, cyano heterocyclyl penta-2,4-dienes and cyano heterocyclyl pent-2-en-4-ynes as active substances against abiotic plant stress” (BAYER CROPSCIENCE AKTIENGESELLSCHAFT, priority 2014, dated 2019).

Structures are written as SMILES.

Assay [1] has as its system Brassica napus (BRSNS). Description: In vivo analyses Part C: drought stress, appearance vs stressed control plants in categories (BRSNS). Set-up: key: 0: no positive effect; 10: slight positive effect; 20: clear positive effect; 30: strong positive effect. The settings on record: appearance vs stressed control plants after recovery phase, efficacy range of 3-4 pots. On the procedure: Seeds of monocotyledonous and dicotyledonous crop plants were sown in sandy loam in plastic or wood-fibre pots, covered with soil or sand and cultivated in a greenhouse under good growth conditions. The test plants were treated at the early leaf stage (BBCH10-BBCH13). To assure uniform water supply before commencement of stress, the potted plants were supplied with water by dam irrigation prior to substance application. The inventive compounds were first formulated as wettable powders (WP) or dissolved in a solvent mixture. The further dilution was effected with water supplemented with 0.2% wetting agent (e.g. agrotin). The finished spray liquor was sprayed onto the green parts of the plant at an equivalent water application rate of 600 I/ha. Substance application was followed immediately by stress treatment of the plants. For this purpose, the wood-fibre pots were transferred in plastic inserts in order to prevent them from subsequently drying out too quickly. Drought stress was induced by gradual drying out under the following conditions: “Day”: 14 hours with illumination at 26-30° C. “Night”: 10 hours without illumination at 18-20° C. The duration of the respective stress phases was guided mainly by the condition of the stressed control plants. It was ended (by re-irrigating and transfer to a greenhouse with good growth conditions) as soon as irreversible damage was observed on the stressed control plants. The end of the stress phase was followed by an about 4-7-day recovery phase, during which the plants were once again kept under good growth conditions in a greenhouse. The duration of the recovery phase was guided mainly by when the trial plants had attained a state which enabled visual scoring of potential effects, and was therefore variable. Once this juncture had been reached, the appearance of the plants treated with test substances was recorded in comparison to the stressed control plants by the following categories: [table] For each substance and dosage, 3-4 pots were treated and evaluated. BRSNS=Brassica napus

Assay [2] has as its system Brassica napus (BRSNS). Description: In vivo analyses Part A: drought stress, visual damage scoring, efficacy EF (BRSNS). The settings on record: spray application 250 g/ha, efficacy = reduction in damage intensity. As to the method: (§1) Seeds of monocotyledonous and dicotyledonous crop plants were sown in sandy loam in wood-fibre pots, covered with soil or sand and cultivated in a greenhouse under good growth conditions. The test plants were treated at the early leaf stage (BBCH10-BBCH13). To assure uniform water supply before commencement of stress, the potted plants were supplied with water by dam irrigation prior to substance application. The inventive compounds, formulated in the form of wettable powders (WP), were sprayed onto the green parts of the plants as an aqueous suspension at an equivalent water application rate of 600 I/ha with addition of 0.2% wetting agent (e.g. agrotin). Substance application was followed immediately by stress treatment of the plants. For this purpose, the pots were transferred in plastic inserts in order to prevent them from subsequently drying out too quickly. Drought stress was induced by gradual drying out under the following conditions: “Day”: 14 hours with illumination at 26° C. “Night”: 10 hours without illumination at 18° C. The duration of the respective stress phases was guided mainly by the condition of the stressed control plants. It was ended (by re-irrigating and transfer to a greenhouse with good growth conditions) as soon as irreversible damage was observed on the stressed control plants. The end of the stress phase was followed by an about 4-7-day recovery phase, during which the plants were once again kept under good growth conditions in a greenhouse. The duration of the recovery phase was guided mainly by when the trial plants had attained a state which enabled visual scoring of potential effects, and was therefore variable. Once this juncture was reached, the intensities of damage were scored visually in comparison to untreated, unstressed controls of the same age. The damage intensity was at first assessed in percent. […]

Assay [3] deals with Triticum aestivum (TRZAS). Description: In vivo analyses Part A: drought stress, visual damage scoring, efficacy EF (TRZAS). The settings on record: spray application 25 g/ha, efficacy = reduction in damage intensity. As to the method:
as §1

Turning to `CCC(C=CC(O)(c1ccccc1)C1(C#N)CC1)=CC(=O)O` (racemic) [I.2-201], in the assay on Brassica napus (BRSNS) [1] (dosage 250 g/ha), the “Effect (BRSNS)” value was 10-30.

With `CCOC(=O)/C=C(\C#CC(O)(C(C)C)C1(C#N)CC1)C1CC1` (stereo not drawn) [I.1-124, Ethyl (2Z)-6-(1-cyanocyclopropyl)-3-cyclopropyl-6-hydroxy-7-methyloct-2-en-4-ynoate], the “EF [%] (BRSNS)” value in the assay on Brassica napus (BRSNS) [2] is more than 5%. The “EF [%] (TRZAS)” value in assay [3] was more than 5%.

`CCOC(=O)/C=C(/C)C#CC(O)(C(C)C)C1(C#N)CC1` (stereo not drawn) [I.1-136]: in the assay on Brassica napus (BRSNS) [2], the “EF [%] (BRSNS)” value is recorded as more than 5%. Also, in assay [3], the “EF [%] (TRZAS)” value is reported as more than 5%.

Consider `CC/C(C#CC(O)(C1CCC1)C1(C#N)CC1)=C/C(=O)OC` (stereo not drawn) [I.1-648], for which the “Effect (BRSNS)” value with Brassica napus (BRSNS) [1] (dosage 25 g/ha) was determined as 30.
